Legend:
[1] = molecular target: T1, DNA TopoI from the vaccinia virus (Vaccinia virus, UniProt P68698); type: biochemical
T1 construct: purchased EPICENTRE Biotechnologies, Madison, Wis

[2] = test system: human breast MCF-7 carcinoma cells; test: MTT assay, cell growth inhibition / cytotoxicity; type: cell-based; details: MCF7, 24 h, read-out: IC50, cytotoxicity
Experimental: Example 1 relates to cell growth inhibition of EVO according to the present invention. Breast cancer MCF-7 cells are cultured in Dulbecco's modified Eagle medium (DMEM) supplemented with 10% heat-inactivated fetal bovine serum (FBS), and 100 μg/ml penicillin-streptomycin. Conditions were maintained in a humidified 95% air/5% CO2 incubator at 37° C. The MTT [3-(4,5-dimethylthiazol-2-yl)-2,5-diphenyl tetrazolium bromide] assay was described previously to test the cytotoxicity of reagents and cell viability (Lin, Tsai, Chen, Chang, Lee et al., 2008). Cells (5000 cells/well) are grown on a 96-well plate supplemented with DMEM medium (with 1% FBS) for 24 hours. Then, cells are treated with CPT or EVO ([…]), and the viability is determined by the reduction of MTT. An MTT stock solution (5 mg of MTT/ml of PBS) is added to the growing cultures (at a final concentration of 0.5 mg/ml). The OD is measured with a spectrophotometer at 560 nm. A blank with DMSO alone is measured and subtracted from all values.
The cytotoxic abilities of EVO and CPT are tested against human breast MCF-7 carcinoma cells, which express high levels of TopoI. CPT is used as a reference drug. Both compounds display efficient cytotoxicity after 24 h of drug exposure. […] Consequently, EVO is slightly less cytotoxic than CPT against breast MCF-7 carcinoma cells.

[3] = molecular target: T2, free-form TopoI in MCF-7 cells (Homo sapiens, UniProt P11387); test: depletion assay for free-form TopoI (immunoblotting); type: cell-based
T2 construct: endogenous in cells; host or cells: MCF-7
T2 sequence (P11387 1-765): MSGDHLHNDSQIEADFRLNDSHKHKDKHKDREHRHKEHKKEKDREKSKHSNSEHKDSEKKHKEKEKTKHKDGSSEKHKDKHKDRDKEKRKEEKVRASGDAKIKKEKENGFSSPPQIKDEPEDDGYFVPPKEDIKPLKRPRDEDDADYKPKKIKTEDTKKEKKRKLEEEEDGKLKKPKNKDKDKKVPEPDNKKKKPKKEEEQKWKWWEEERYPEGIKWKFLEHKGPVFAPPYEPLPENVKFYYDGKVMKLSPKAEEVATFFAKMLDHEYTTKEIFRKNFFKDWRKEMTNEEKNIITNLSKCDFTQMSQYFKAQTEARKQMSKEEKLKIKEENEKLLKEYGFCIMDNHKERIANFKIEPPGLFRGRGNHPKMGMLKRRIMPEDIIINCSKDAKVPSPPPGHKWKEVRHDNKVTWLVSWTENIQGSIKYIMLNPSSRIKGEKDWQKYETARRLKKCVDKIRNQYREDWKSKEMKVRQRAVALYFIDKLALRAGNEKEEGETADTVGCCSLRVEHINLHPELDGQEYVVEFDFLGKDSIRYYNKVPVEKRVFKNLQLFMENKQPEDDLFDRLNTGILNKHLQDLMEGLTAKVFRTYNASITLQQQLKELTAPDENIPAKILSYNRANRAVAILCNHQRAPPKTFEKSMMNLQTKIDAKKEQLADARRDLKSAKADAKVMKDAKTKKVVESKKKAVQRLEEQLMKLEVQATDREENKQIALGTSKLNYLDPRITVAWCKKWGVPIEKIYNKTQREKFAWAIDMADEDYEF
Experimental: Example 3 relates to detection of the levels of free-form TopoI from breast cancer cells reduced by EVO according to the present invention. Provided that EVO is able to fix TopoI on DNA, the level of free-form TopoI should be decreased. Monolayers that are breast cancer MCF-7 cells of 50%—80% confluent are treated with drugs for a short time, and then cellular proteins are extracted from the MCF-7 cells. After that, the cellular proteins are separated electrophoretically in a 7.5% SDS polyacrylamide gel and electro-transferred to a polyvinylidene difluoride (PVDF) membrane. The membrane is incubated with the primary antibody (rabbit anti-human topoisomerase I antisera) at room temperature for 2 hours, and then incubated with a horseradish peroxidase-conjugated secondary immunoglobulin G (IgG) antibody. The immunoreactive bands are visualized with enhanced chemiluminescent reagents and photographed using a gel documentation system.
A depletion assay for free-form TopoI is performed to confirm the effect of EVO on DNA topological catalysis of TopoI. This assay is based on the ability of CPT to trap TopoI and DNA to form a CPT-TopoI-DNA triple complex, to see if EVO inhibits TopoI activity through a similar mechanism. […] Depletion of TopoI protein by EVO is also detected in a concentration-dependent manner after 1 hour of treatment. […]

[4] = molecular target: T3, purified recombinant eukaryotic TopoI (Homo sapiens, UniProt P11387); type: biochemical; details: supercoiled DNA relaxation, TopoI prepared from recombinant DNA
T3 sequence (P11387 1-765): T2 sequence (P11387 1-765)

[5] = molecular target: T4, TopoI-DNA complex in 3H-thymidine-labeled MCF-7 cells (Homo sapiens, UniProt P11387); test: KCl/SDS precipitation assay, TopoI-DNA complex trapping; type: cell-based; details: 30 μM, 60 minutes, FIG. 4
T4 construct: endogenous in cells; host or cells: MCF-7
T4 sequence (P11387 1-765): T2 sequence (P11387 1-765)
Experimental: Example 4 relates to using a KCl/SDS precipitation assay to show TopoI-DNA complex trapping activity of EVO according to the present invention. The formation of a cleavable complex in intact cells is quantified by a KCl-sodium dodecylsulfate (SDS) precipitation technique, a modified procedure described previously by Yoshinari et al. (1993). Cellular DNA is labeled by adding ^3H-thymidine to the medium to a final concentration of 10 μCi/ml. After an overnight incubation, cells are plated to a density of 1×10^5 cells/well in a 24-well plate for another overnight incubation, and treated with various concentrations of EVO (0˜30 μM) for 60 minutes. The medium is removed from each well, and cells are washed with phosphate-buffered saline (PBS) and lysed with 1 ml of prewarmed (65° C.) lysis solution (1.25% SDS, 5 mM EDTA, 0.4 mg/ml salmon sperm DNA). Lysate is sheared using a 21-gauge needle. The samples as background control are treated by the above procedure but with proteinase K (400 μg/ml) in the lysis buffer, and are incubated at 50° C. for 2 hour. KCl (325 mM), at 250 μl, is added to each sample, vortexed vigorously, cooled on ice for 10 minutes, and centrifuged at 2500 rpm for 10 minutes at 4° C. […] The pellet is resuspended in 400 μl prewarmed H2O (65° C.) and combined with 4 ml scintillation liquid, and the radioactivity counts are determined using a liquid scintillation counter. […]

SMILES | inhibition of supercoiled plasmid DNA relaxation catalyzed by TopoI [1] | IC50 [2] [µM] | relative level of DNA-unlinked TopoI protein versus the control ([3]; 0˜10 μM, 1 hour of treatment, FIG. 3B) [%] | TopoI protein level in comparison to the untreated control ([3]; 10 μM, 120-minute treatment, FIG. 3A) [%] | inhibition activity toward purified recombinant eukaryotic TopoI [4] | 3H-thymidine-labeled DNA trapped in a covalent complex with TopoI [5] [%] | inhibitory activity on TopoI catalytic supercoiled plasmid relaxation, compared with CPT and EVO [1]
CC[C@@]1(O)C(=O)OCc2c1cc1n(c2=O)Cc2cc3ccccc3nc2-1 [CPT, Camptothecin, reference compound] | retain a greater amount of uncatalytic supercoiled DNA in a dose-dependent manner | 3.23 |  |  |  |  | 
CN1c2ccccc2C(=O)N2CCc3c([nH]c4ccccc34)C21 (stereo not drawn) [EVO, Evodiamine] | inhibitory activity on TopoI catalytic relaxation in a dose-dependent manner | 6.02 | < 40 | < 20 | inhibited | 43.6 | 
O=c1c2ccccc2nc2n1CCc1c-2[nH]c2ccccc12 [rutaecarpine] |  |  |  |  |  |  | substantially equivalent to those of CPT and EVO

Reference: US20100144763A1, “Pharmaceutical composition for inhibiting topoisomerase I and method for exploiting drug” (priority 2008, published 2010)
